One experiment has as its system MDS mouse model. Put plainly: MDS mouse model, combination of KanAS, ATRA and 5-azacytidine, survival. In kind it is in vivo. Particulars: MDS mice, individual mouse; alive = still alive on 24 Mar. 2010. The procedure: The MDS mouse model described in Omidvar et al. (2007, Cancer Res. 67:11657-67) was used to study the effect of the combination of KanAS, ATRA and 5-azacytidine on MDS.
100 microliters of 1 mg/ml solution of 5-Azacytidine was injected IP to the mice on the day of diagnosis and then on Mondays, Wednesdays and Fridays until death of the mice.
ATRA was administered through a 10 mg 21 day release pellet
The vaccination protocol was as follows: 100 micrograms of DNA (VVACS02 or pVax14 or pVaxKanAS) were administered […] diagnosis (day 0), which corresponded to the day on which the peripheral blood platelet count fell below normal (<10^5/microliter). On day 20 and on day 40, 2×50 micrograms of DNA were injected again.
The mice were randomly divided into four groups after twelve 5-azacytidine injections: • 5-Azacytidine (n=5) • 5-azacytidine+ATRA (n=4) • 5-azacytidine+VVACS02 DNA (n=4) • 5-azacytidine+ATRA+VVACS02 DNA (n=4)

In the next experiment the test system is APL cells. The experiment can be described thus: APL mouse model survival, Kaplan-Meier, mice followed for two years. In kind it is in vivo, FVB/N mice. Conditions: Kaplan-Meier survival curves. The procedure: The effect of different DNA constructs on an APL mouse model was studied using the protocol disclosed in Padua et al. (2003, Nature Medicine 9:1413-1417). Briefly, 10^4 APL cells were injected to FVB/N mice. Then an ATRA pellet, which releases 5 mg/day of ATRA for 21 days, was introduced behind the neck of the mice with a trochar. DNA (2×50 micrograms of plasmid) was injected the day after introducing the ATRA pellet, and every 20 days for a total of three injections. The following DNA constructs were injected to the mice: • the pVaxKanAS construct, also referred to as pVax14; • the pCDNA3PML-RARαFrC construct (VVACS01); • the pVaxPML-RARαFrC construct; and • the pCDNA3PML-RARαASFrC construct (VVACS04).
A pellet purchased from the manufacturer of the ATRA pellet (Innovative Research, Sarasota, USA) was used as a placebo.
The mice were followed for two years and Kaplan-Meier curves were constructed.
The results are shown on FIG. 2 and in Table 1 herebelow. The log-rank (Mantel-Cox) and general Wilcoxon tests were applied to the Kaplan-Meier curves. Both statistical tests led to identical conclusions in terms of significance.

From US9029135B2 (priority 2009, dated 2015) come the findings set out here.

The structures appear in SMILES notation. Where “and” joins values, the source holds several entries; their conditions need not be identical. Equal values may be shown once.

Consider `Nc1ncn([C@@H]2O[C@H](CO)[C@@H](O)[C@H]2O)c(=O)n1` [5-azacytidine], for which the “Days alive from treatment” value in the experiment on MDS mouse model is 33 days and Alive on 24 Mar. 2010 (112 days) and 72 days and Alive on 24 Mar. 2010 (75 days) and 37 days.

Take `CC1=C(/C=C/C(C)=C/C=C/C(C)=C/C(=O)O)C(C)(C)CCC1` [ATRA, all-trans retinoic acid]: in the experiment on APL cells (V.S. placebo), the “general Wilcoxon Chi-2 value” is 5.1827E+01, the “general Wilcoxon significance (p bound)” value is given as “p < 0.0001”, the “log-rank (Mantel-Cox) Chi-2 value” is 6.0018E+01 and the “log-rank (Mantel-Cox) significance (p bound)” value is “p < 0.0001”. In addition, in the experiment with APL cells (V.S. placebo + DNA), the “general Wilcoxon Chi-2 value” is reported as 1.6318E+01, the “general Wilcoxon significance (p bound)” value is listed as “p < 0.0001”, the “log-rank (Mantel-Cox) Chi-2 value” is on record as 8.7059E+00 and the “log-rank (Mantel-Cox) significance (p bound)” value is “p < 0.005”.
